Measurements published in PubChem BioAssay AID2252 (Southern Research Specialized Biocontainment Screening …, 2010).

Test system: THP-1 viability, CellTiter-Glo luminescence, 72 h
Assay: PubChem AID 2252

SMILES | EC50 [µM]
O=C(NCCCN1CCOCC1)c1sc2cc(Cl)ccc2c1Cl | 35.8
O=C(NC(=S)NNC(=O)c1cccs1)c1ccco1 | 16.2
CCN(CCNCC(O)COc1ccccc1C(C)C)c1cccc(C)c1 (configuration not stated) | 11
CC(=O)NCc1ccc(C(=O)CCl)cc1 | 33.3
CCCOc1ccc(-c2cn3ccccc3n2)cc1 | 43.5
CCCCCc1ccc(OCCCC[n+]2ccccc2)c(CCCCC)c1 | 1.48
Cc1cc(/C=C\c2ccc3cc(N(C)C)ccc3[n+]2C)c(C)n1-c1ccccc1 | 4.95
CCCCCNC(=O)c1cn(CC)c2cc(N3CCN(C)CC3)c(F)cc2c1=O | 19.8
Cc1cc(C)n(-c2nc(NCCN(C)C)c3c4c(sc3n2)CCCC4)n1 | 4.39
CCN1CCN(CCNC(=O)c2ccc(/C=C3/Sc4ccccc4N(Cc4cccc(Cl)c4)C3=O)cc2)CC1 | 8.93
CCOc1cccc(/C=N/NC(=O)c2cc(C3CC3)[nH]n2)c1O | 5.46
CCCN(C(=O)CSc1nc2ccccc2n1CC)C1CCS(=O)(=O)C1 (configuration not stated) | 14.8
O=C(Nc1csc(Cl)c1)c1ccccc1 | < 0.1
COc1ccc(Nc2c3ccccc3nc3ccccc23)cc1 | 8.99
O=C(N/N=C/c1cc(Cl)ccc1O)c1ccncc1 | 6.13
CCOc1cccc(CNCCc2c(C)[nH]c3ccc(OC(F)(F)F)cc23)c1O | 3.51
Cc1ccc(Nc2cc(C)nn2-c2nc(C)cc(=O)[nH]2)cc1 | 0.65
O=C(NCCCN1CCN(c2ccc(F)cc2)CC1)Nc1ccc([N+](=O)[O-])cc1 | 45.1
CN(C)c1ccc(O)c2c1CC1CC3[C@@H](N(C)C)C(=O)C(C(N)=O)=C(O)[C@]3(O)C(=O)C1=C2O (some centres not stated) | 30.3
O=C(N/N=C/c1cc(Br)ccc1O)c1ccccc1Cl | 1.49
Nc1c(Cl)ncnc1N/N=C/c1ccccn1 | 0.36
CN1CCN(C(c2cccc(Cl)c2)c2ccccc2Cl)CC1 (configuration not stated) | 35
CN1CCN(c2ccc(NC(=O)c3ccc(-c4ccc(Br)cc4)o3)cc2)CC1 | 7.84
ON=C1/C(=N\O)CC2(C/C1=N/O)OCCO2 | 33.2

SMILES | EC50 [µM]
COc1cc(CNCCc2c[nH]c3ccccc23)ccc1OCc1ccc(F)cc1 | 6.34
CC(C)[C@H](NC(=O)c1ccccc1Cl)C(=O)Nc1nc(-c2ccccn2)cs1 | 6.18
O=C(NC(=S)NNC(=O)c1cccs1)c1ccc(Br)o1 | 27.5
CN(C)CCCN(C(=O)COc1ccccc1)c1nc2ccc(Cl)cc2s1 | 46.8
CC(=O)CC1OC(=O)C(Br)=C1NCc1ccccc1 (configuration not stated) | 9.9
CCc1ccc2c(c1)C1(NN=C(c3ccc(C)cc3)S1)C(=O)N2 (configuration not stated) | 9.42
C#CCOCCOCCOCCNc1nc(N2CCN(C(=O)CCCCCCCCCCNC(=O)Cn3cc(CCCCCN)nn3)CC2)nc(N2CCN(C(=O)CCCCCCCCCCNC(=O)[C@H]([C@@H](C)CC)n3cc(CCCCN=C(N)N)nn3)CC2)n1 | 11
Oc1c(Cl)cc(CN2CCCCC2)c2cccnc12 | 0.71
N#C/C(=N\Nc1ccc([N+](=O)[O-])cc1)C(N)=S | 29
Brc1ccc2c(c1)C(OC1CN3CCC1CC3)c1ccccc1CS2 (configuration not stated) | 8.31
CNCCCN1c2ccccc2CCc2ccccc21 | 40.4
COc1ccccc1Nc1nc(NCC2CCCO2)c2ccccc2n1 (configuration not stated) | 14.1
Cc1ccc(N=Cc2cc(Br)cc(Cl)c2O)cc1 | 49.5
O=C1C(SCCO)=C(SCCO)C(=O)c2ccccc21 | 3.62
Cc1nc(NC2=NCN(CCCN3CCOCC3)CN2)nc2c(C)cccc12 | 13.9
CO[C@H]1C=CO[C@@]2(C)Oc3c(C)c(O)c4c(O)c(c(C=NN5CCN(C)CC5)c(O)c4c3C2=O)NC(=O)C(C)=CC=C[C@H](C)[C@H](O)[C@@H](C)[C@@H](O)[C@@H](C)[C@H](OC(C)=O)[C@@H]1C | 42.4
COc1ccc(NC2=NC3(CCCCC3)N=C(N)N2)cc1 | 27
COc1ccc(CCN2CCC(Nc3nc4ccccc4n3Cc3ccc(F)cc3)CC2)cc1 | 3.8
CCCCc1ccc2[nH]cc(CCN)c2c1 | 7.81
Oc1ccc(C=Nc2ccc3ncccc3c2)c(O)c1 | 16.5
O=C(CSc1ccccn1)N/N=C/c1cc([N+](=O)[O-])ccc1O | 21.5
Cc1ccc(Nc2nc(NCCO)c3ccccc3n2)cc1C | 3.06
O=C(Nc1c(Cl)ccc2nsnc12)c1ccc([N+](=O)[O-])o1 | 3.84
Cc1[nH]nc2c1C(c1ccc(-c3ccccc3C#N)o1)C(C#N)=C(N)O2 (configuration not stated) | 30.6

SMILES | EC50 [µM]
Clc1ccc(C[n+]2cc(-c3ccc(Cl)cc3)n3c2CCC3)cc1 | 22.7
O=C(Nc1ccccc1)Nc1cccc(Cl)c1 | 43.7
Cc1nn(-c2nc3ccccc3[nH]2)c(N)c1-c1ccccc1 | 28.7
O/N=C/C1=C(Cl)c2ccccc2CC1 | < 0.1
OC(CNCCc1ccc(Cl)cc1Cl)COc1ccccc1 (configuration not stated) | 29.2
CC(=O)NNC(=S)NC(=O)c1ccccc1 | 44.8
O=C(N/N=C/c1ccc(O)c(O)c1)C1c2ccccc2Oc2ccccc21 | 42
[O-][n+]1cccc2c(Br)cc(Br)c(O)c21 | 24.4
CSc1nc2cc(Oc3cccc(Cl)c3Cl)c(Cl)cc2[nH]1 | 43.9
CCCCCCC[N+](CC)(CC)CCCCc1ccc(Cl)cc1 | 3.22
Nc1nc(Nc2ccccc2)nc2ccccc12 | 3.32
COc1ccc(CNCCc2cccc(F)c2)c2ccccc12 | 12.9
Cc1ccc(Nc2cc(C)c3c(O)cccc3n2)cc1C | 23.8
O=C(Nc1ccc(Nc2ccncc2)cc1)c1ccc([N+](=O)[O-])cc1 | 11.9
CCOc1ccc(-c2c[n+]3c(n2-c2ccccc2)CCCCC3)cc1 | 25.6
CCCSc1nc2cc(OC)c(OC)cc2c(=N)n1CCCN1CCOCC1 | 45.2
CN(C)CC/C=C1/c2cc(F)ccc2Sc2ccc(Cl)cc21 | 20.5
CNC(CC(=O)c1ccc([N+](=O)[O-])cc1)C(Cl)(Cl)Cl (configuration not stated) | 9.95
O=C(N/N=C/c1cc(Br)ccc1O)c1ccncc1 | 5.06
O=C(N=Nc1c(O)[nH]c2ccccc12)c1cc(-c2cccs2)[nH]n1 | < 0.1
CCCCCCCSc1cc(OC)c(CCNC)cc1OC | 10.2
Cc1cnc(C(=O)Nc2nnc(C)s2)cn1 | < 0.1
N=c1n(Cc2ccc(Cl)cc2)c2ccccc2n1CC(O)COc1ccccc1 (configuration not stated) | 5.39
COc1ccccc1Nc1nc(NCc2ccco2)c2ccccc2n1 | 13.3

SMILES | EC50 [µM]
Cc1ccc(-c2c[n+](Cc3ccc(Cl)cc3)c3n2CCC3)cc1 | 10.1
O=C1c2c(O)ccc(O)c2C(=O)c2c(NCCNCCO)ccc(NCCNCCO)c21 | < 0.1
O=C(/C=C/c1ccco1)NC(=S)NNC(=O)c1ccco1 | 32.3
COc1ccc2sc(N(CCCN(C)C)C(=O)c3ccc(S(=O)(=O)N4CCc5ccccc5C4)cc3)nc2c1 | 4.42
C#CCOCCOCCOCCNc1nc(N2CCN(C(=O)CCCCCCCCCCNC(=O)[C@H](CCCCN)n3cc(C)nn3)CC2)nc(N2CCN(C(=O)CCCCCCCCCCNC(=O)[C@H](CCCN=C(N)N)n3cc(C[C@@H](C)CC)nn3)CC2)n1 | 5.13
CC(C)N=C(N)N=C(N)Nc1ccc(Cl)cc1 | 35.1
Fc1ccc(Nc2nnc(C(F)(F)F)s2)cc1Cl | 18.5
Oc1ccc(/C=N/Nc2nccnc2Cl)c(O)c1 | 1.63
O=C(O)CC/C(=C\c1ccccc1[N+](=O)[O-])c1nc2ccccc2s1 | < 0.1
Oc1ccc(C=Nc2cccc3ncccc23)c(O)c1 | 3.33
CCn1nccc1C(=O)Nc1cc(Cl)cc(Cl)c1 | 37
CCCCCCCCCCCCCCCCn1cc[n+](C)c1 | 0.74
c1ccc2c(c1)CCN(c1nc3ccccc3n3cnnc13)C2 | 24.8
CC(=O)Nc1nc(C)c(-c2csc(Nc3ccc(O)cc3)n2)s1 | 4.01
CN1CCC(=C2c3ccccc3C=Cc3ccccc32)CC1 | 41.3
CCOc1ccc(-c2cc(C)[n+](CCN(CC)CC)c(-c3ccc(OCC)cc3)c2)cc1 | 4.37
CCCCCCCCCCOC(=O)Cn1c(COc2ccc(C)cc2)[n+](C)c2ccccc21 | 2.36
O=C(NCCCNc1ccnc2cc(Cl)ccc12)c1ccccc1F | 21.2
CN(C)CC/C=C1/c2ccccc2Sc2ccc(Cl)cc21 | 10.1
NC(N)=N/N=C/c1ccc(OCc2ccccc2Cl)cc1 | 3.15
Cc1cc(C)n(-c2nc(SCCN(C)C)c3c4c(sc3n2)CCCC4)n1 | 3.25
CCn1cc(C(=O)O)c(=O)c2cc(F)c(N3CCN(C(=S)NC(=O)c4cccc(C)c4)CC3)cc21 | < 0.1
Cc1ccc(-c2cc(N)nc(-c3ccccc3)c2)cc1 | 28.6
COc1ccc(NC(=O)CC2Sc3ncnn3C2=O)cc1 (configuration not stated) | 46.5

SMILES | EC50 [µM]
O=C(Cn1nc(CNc2ccc(Cl)cc2)[n+]2c1CCCCC2)c1ccc(Br)cc1 | 11.2
CC1CCC(C(C)C)C(OC(=O)Cn2c(-c3ccc(Cl)cc3)[n+](C)c3ccccc32)C1 (configuration not stated) | 2.22
CC(=O)c1cc(O)c2ccccc2c1O | 41.2
O=C(/C=C/c1ccc(F)cc1)NC(=S)NNC(=O)c1cnccn1 | 6.17
CCc1cccc2c1Sc1ccccc1CC2N1CCNCC1 (configuration not stated) | 9.72
COc1ccc(Cc2nnc(N/N=C/c3ccc(O)cc3)[nH]c2=O)cc1OC | 0.57
Nc1ncn(C2O[C@H](CO)[C@@H](O)[C@H]2O)c(=O)n1 (some centres not stated) | 14
CCOc1ccc(-c2nc(N)ncc2-c2ccccc2)c(O)c1 | 46.8
CCCCOc1ccc(C(=O)NNC(=S)NC(=O)CC)cc1 | 3.29
NC1=NC2=C(CCCC2)C2(CCCCC2)S1 | 37.4
Cc1cc(NC(=O)/C=C/C(=O)N(c2ccccc2C)C(C(=O)NC2CCCC2)c2ccc(F)cc2)no1 (configuration not stated) | 37.5
O=C(CCN1CCN(c2ccccc2F)CC1)c1ccc(Br)cc1 | 17
O=C(N/N=C/c1cc([N+](=O)[O-])ccc1O)c1cccc2cc[nH]c12 | 1.91
CCOc1ccc(Nc2nc(N)c3ccccc3n2)cc1 | 6.96
CCN(CC)CCOC(=O)c1ccc(N/C=C(/C#N)c2nc(-c3ccc(OC)c(OC)c3)cs2)cc1 | 13.5
Cc1ccc(C(=O)Sc2cccccc2=O)cc1 | 2.27
Cn1c(-c2ccc(Cl)cc2)cnc1N | 33.8
COc1ccc(/C=C/c2cc(-c3ccc(C)cc3)o[n+]2C)cc1 | 1.27
N=c1n(CCN2CCCCC2)c2ccccc2n1CC(=O)c1ccc(Cl)c(Cl)c1 | 20.4
Oc1[nH]c2ccccc2c1N=NC(=S)N1CCOCC1 | 2.48
O=C(Oc1c(Cl)cc(Cl)c2cccnc12)c1cccc([N+](=O)[O-])c1 | 14.6
